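Compound exposure: 48 hours, 5 concentrations, 96-well plates. Definition used: TGI = concentration required for complete inhibition of growth.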
Columns and labels:
Assay in all cases: NCI tumour cell line growth inhibition, 48 h
COLO 205 colon = test system: COLO 205 colon
HCC-2998 colon = test system: HCC-2998 colon
K-562 leukemia = test system: K-562 leukemia
M14 melanoma = test system: M14 melanoma
MCF7 breast = test system: MCF7 breast
MDA-MB-435 = test system: MDA-MB-435
RXF 393 renal = test system: RXF 393 renal
SK-MEL-28 melanoma = test system: SK-MEL-28 melanoma
SN12C renal = test system: SN12C renal
T-47D breast = test system: T-47D breast

Row | SMILES | TGI (COLO 205 colon) [µM] | TGI (HCC-2998 colon) [µM] | TGI (K-562 leukemia) [µM] | TGI (M14 melanoma) [µM] | TGI (MCF7 breast) [µM] | TGI (MDA-MB-435) [µM] | TGI (RXF 393 renal) [µM] | TGI (SK-MEL-28 melanoma) [µM] | TGI (SN12C renal) [µM] | TGI (T-47D breast) [µM]
1 | CC(=O)C1=C(C)N(c2ccccc2)C2(O)C3=C(C(=O)c4ccccc4C3=O)C(O)=CC12Cl (stereo not given) | > 100 | 25.9 | > 100 | > 100 | 39.9 | 6.28 | 25.6 | 23.6 | 24 | > 100
2 | CCOC(CBr)OC1C(=O)OCC1(C)C (stereo not given) | > 100 | > 100 | > 100 | > 100 | > 100 | > 100 | > 100 | > 100 | > 100 | > 100
3 | COc1c(C(=O)/C(=N/Nc2ccc(C(=O)O)cc2)C(C)=O)c(O)cc2occc12 | > 100 | > 100 | > 100 | > 100 | > 100 | > 100 | > 100 | > 100 | > 100 | > 100
4 | Nc1cc(C2CCCc3c2[nH]c2ccccc32)ccc1O (stereo not given) | > 100 | > 100 | > 100 | > 100 | > 100 | 33.2 | > 100 | > 100 | > 100 | > 100
5 | Cc1ccc(C(=O)Nc2ccc(S(=O)(=O)O)c3cc(S(=O)(=O)O)cc(S(=O)(=O)O)c23)cc1NC(=O)c1cccc(NC(=O)Nc2cccc(C(=O)Nc3cc(C(=O)Nc4ccc(S(=O)(=O)O)c5cc(S(=O)(=O)O)cc(S(=O)(=O)O)c45)ccc3C)c2)c1 | > 100 | > 100 | > 100 | > 100 | > 100 | > 100 | > 100 | > 100 | > 100 | > 100
6 | O=C1/C(=C/c2cccc([N+](=O)[O-])c2)N=C(c2ccccc2)N1c1nc2ccc(Sc3ccccc3)cc2[nH]1 | 96.8 | > 100 | > 100 | > 100 | > 100 | 37 | > 100 | > 100 | > 100 | > 100
7 | CCN(CC)Cc1cc(N=Nc2c(O)ccc3c(N=Nc4ccc(O)c(CN(CC)CC)c4)c(O)ccc23)ccc1O | 3.6 | 5.18 | > 36.3 | > 38.5 | 13 | 20.8 | > 23.1 | 20 | 17.6 | 32.7
8 | COc1cc(/C=C2\C(=O)N(c3cccc(NC(C)=O)c3)C(c3ccccc3)S2(=O)=O)cc(OC)c1OC (stereo not given) | > 100 | > 100 | > 100 | > 100 | > 100 | > 100 | > 100 | > 100 | > 100 | > 100
9 | Cc1nc2c(Cl)cc(Cl)cc2c2c1CCO2 | > 100 | > 100 | > 100 | > 100 | > 100 | > 100 | > 100 | > 100 | > 100 | > 100
10 | O=C(CC(C(=O)c1ccsc1)c1cccs1)c1ccccc1 (stereo not given) | > 100 | > 100 | > 100 | > 100 | > 100 | > 100 | > 100 | > 100 | > 100 | 33.7
11 | N=c1oc2ccc3ccccc3c2cc1-c1nc2ccccc2c(=O)[nH]1 | > 100 | > 100 | > 100 | > 100 | 30 | > 100 | 56.7 | > 100 | > 100 | > 100

Source: PubChem BioAssay (NCI)
